# Values joined by “and” are separate entries in the source; they are usually repeats but may differ in a detail not shown here. Identical values can stand only once. Like-named read-outs stand apart in the source and are kept apart here.
# Assays:
# [1] = β-sheet content by ATR-FT-IR; type: physicochemical; details: for b -sheet / %: Fig. S7 panel A, β-sheet content by ATR-FT-IR
# In short: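 β-sheet content came from ATR FT-IR spectra of lyophilized 1 mg/mL nanofibril solution (64 scans, 2 cm^-1 resolution). Conversion was measured by separating free monomer with a 3 kDa cutoff filter, then comparing fluorescamine fluorescence (ex 365/em 470 nm, 20 min RT) of filtrate versus unfiltered sample, in triplicate.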
# [2] = Turbidity, derived count rate of scattered light; type: physicochemical; details: for Log Count Rate: log of derived count rate; for Count Rate / kcps: derived count rate of scattered light at 633 nm, 173°, from zeta-potential measurement, 0.1 mg/mL in 1 mM KCl after 1 d at 1 mg/mL in PBS, turbidity / microscopic aggregation, mean of triplicate
# In short: (§1)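 One-day room-temperature aggregation at 1 mg/mL in PBS (pH 7.4) preceded measurement; samples then went into 1 mM KCl. Triplicates per sample, two independent experiments averaged.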
# [3] = Zeta-potential measurement; type: physicochemical
# In short: as §1
# [4] = test system: HIV-1 infection of TZM-bl cells; experiment: HIV-1 infectivity enhancement assay, β-galactosidase luminescence; type: cell-based; details: for Rel-EFC: infection relative to EF-C (QCKIKQIINMWQ = 1); for Log10 Infection Rel EFC: log10 of infection relative to EF-C; for Rel-to EFC (Feb-2021): n-fold infectivity relative to EF-C; for Log Infectivity: Log10 infection relative to EF-C, TZM-bl cells; for Log10 Infection Rel EF-C: HIV-1 infection of TZM-bl cells; for Abs. Inf.: absolute infection signal, HIV-1 on TZM-bl cells, β-galactosidase luminescence
# [5] = Log10 of derived count rate of scattered light (turbidity)
# [6] = logarithm of count rate in kcps
# [7] = turbidity, Log10 of derived count rate of scattered light, Figure 3A source data
# [8] = turbidity, log10 of derived count rate of scattered light
# [9] = zeta-potential of peptide, source data of Figure 2C
# [10] = zeta-potential of the peptide assemblies, mean, Figure 3A source data
# [11] = Fig. S7 panel A (plotted against β-sheet content), asymmetric std dev errors
# [12] = Fig. S7 panel B (plotted against CR), rounded to two decimals, asymmetric std dev errors
# [13] = Log10 of infection rate relative to EF-C, Figure 3A source data
# [14] = infection rate relative to EF-C, log10, data of Figure 2D
# [15] = infection rate relative to EF-C, log10, source data of Figure 2C
# [16] = Log10 of infection relative to EF-C, all peptides of FigS16
# [17] = log10 of HIV-1 infection of TZM-bl cells relative to EF-C (EF-C = 0)
substance,measurement,setting,value
QCKIKQIINMWQ [reference compound],FTIR ß-sheet content/ %,[1],39.05%
same,FTIR ß-sheet content/ %,"[1]; ATR-FT-IR, listed as EF-C",39% and 39.05%
same,b -sheet / %,[1],51.73%
same,Log Count Rate,"[2]; Fig S8 panels A, C, asymmetric log errors",3.415
same,Log Count Rate,"[2]; Fig S8 panels B, D",3.415
same,Count Rate,"[2]; Fig S8 panels B, D, turbidity, derived count rate of scattered light",2602.27
same,Log10 Count Rate,[2]; [5],3.415
same,Zeta Count Rate Category,"[2]; category 1 / 0, no key given",1
same,Zeta Count Rate Category,"[2]; category 1 or 0 from count rate, key not given",1
same,Zeta Count Rate / kcps,[2]; derived count rate of scattered light,2602 kcps
same,Count Rate / kcps,[2],2606 kcps
same,Zeta Count Rate / kcps,"[2]; derived count rate of scattered light, mean, std deviation in next column",2602 kcps
same,Zeta Count Rate / kcps,"[2]; derived count rate of scattered light, mean, std deviation in separate column",2602 kcps
same,Log10 Count Rate,[2]; [6],3.415
same,Log10 Count Rate,[2]; [7],3.415
same,Log10 Count Rate,[2]; [8],3.415
same,Zeta Pot. / mV,[3],6.643 mV
same,Zeta category ( +1 = if > 4 mV;-1 = if < -4 mV; 0 = -4mV to 4 mV),[3],1 (+1 = if > 4 mV)
same,Zeta-Pot.,[3],6.643
same,Zeta category ( +1 = if > 4 mV;-1 = if < -4 mV; 0 = -4mV to 4 mV),[3]; category from zeta potential,1 (+1 = if > 4 mV)
same,Zeta Pot. / mV,"[3]; mean, Std Zeta in next column",6.643 mV
same,Zeta Pot. / mV,"[3]; mean, Std in separate column",6.643 mV
same,Zeta-pot. / mV,"[3]; zeta potential of peptide, Fig S15 source data",6.643 mV
same,Zeta-Potential / mV,[3]; [9],7.192 mV
same,Zeta-Potential / mV,[3]; [10],6.64 mV
same,Rel-EFC,[4]; 1.3 µM peptide,1
same,n-fold infectivity enhancement compared to virus-only infectivity,"[4]; 1.3 µM peptide, listed as EF-C",42 ± 7
same,Log10 Infection Rel EFC,[4]; 1.3 µM peptide,0
same,Absolute Infectivity / RLU /s (Feb2021),"[4]; Feb2021, figures match the 1.3 µM column",21312.22222 RLU /s
same,n-fold to virus (Feb2021),"[4]; Feb2021, infectivity relative to virus only",42.02
same,Rel-to EFC (Feb-2021),[4]; Feb2021,1
same,n-fold to virus (Feb2021),"[4]; Feb2021 run, infectivity n-fold relative to virus alone",42.02
same,Log10 of Rel to EFC (Feb2021),"[4]; Feb2021 run, log10 of infectivity relative to EF-C",0
same,Rel-to EFC (Feb-2021),[4]; Feb2021 run,1
same,Rel-to EFC,"[4]; Fig S8 panels B, D, infectivity enhancement relative to EF-C",1
same,n-fold to virus,"[4]; Fig S8 panels B, D, infectivity n-fold relative to virus alone",42.02
same,Log Infectivity,[4]; [11],0
same,Log Infectivity,[4]; [12],0
same,Log10 Infection Rel EF-C,[4]; [13],0
same,Log10 Infection Rel EF-C,[4]; [14],0
same,Log10 Infection Rel EF-C,[4]; [15],0
same,Log10 of Rel to EFC (Feb2021),[4]; [16],0
same,Abs. Inf.,[4],21312.22222
same,infectivity,"[4]; infectivity class (low / medium / high) of the peptide in the sequence-pattern analysis, Fig. S22-A4, class limits not given",high
same,Log10 Inf. rel. to EF-C,[4]; [17],0
same,Log10 Inf. rel. to EF-C,"[4]; log10 of HIV-1 infection of TZM-bl cells relative to EF-C, Fig S15 source data, asymmetric std dev errors",0
same,Abs Infection at 0.26µM,"[4]; peptide 0.26 µM, mean of n = 3, Figure 7A",39053.33333
same,Abs Infection at 1.3 µM,"[4]; peptide 1.3 µM, mean of n = 3, Figure 7A",101036.6667
same,Abs Infection at 6.5 µM,"[4]; peptide 6.5 µM, mean of n = 3, Figure 7A",141063.3333
QCKFKFQFNM,b -sheet / %,[1],37.29%
same,Log10 Count Rate,[2]; [5],3.565
same,Count Rate / kcps,[2],3670 kcps
same,Log10 Count Rate,[2]; [7],3.565
same,Log10 Count Rate,[2]; [8],3.565
same,Zeta-Pot.,[3],15.7
same,Zeta-Potential / mV,[3]; [9],16.1 mV
same,Zeta-Potential / mV,[3]; [10],15.7 mV
same,Rel-EFC,[4]; 1.3 µM peptide,"0,51"
same,Log10 Infection Rel EFC,[4]; 1.3 µM peptide,"-0,29"
same,Log Infectivity,[4]; [11],-0.2906
same,Log Infectivity,[4]; [12],-0.29
same,Log10 Infection Rel EF-C,[4]; [13],-0.29
same,Log10 Infection Rel EF-C,[4]; [14],-0.2906
same,Log10 Infection Rel EF-C,[4]; [15],-0.2906
same,Log10 of Rel to EFC (Feb2021),[4]; [16],-0.29
same,Abs. Inf.,[4],16353.33333
same,Log10 Inf. rel. to EF-C,[4]; [17],-0.2906
QCKFKFQF,b -sheet / %,[1],40.03%
same,Log10 Count Rate,[2]; [5],3.426
same,Count Rate / kcps,[2],2669 kcps
same,Log10 Count Rate,[2]; [7],3.426
same,Log10 Count Rate,[2]; [8],3.426
same,Zeta-Pot.,[3],12.2
same,Zeta-Potential / mV,[3]; [9],13.3 mV
same,Zeta-Potential / mV,[3]; [10],12.2 mV
same,Rel-EFC,[4]; 1.3 µM peptide,"0,77"
same,Log10 Infection Rel EFC,[4]; 1.3 µM peptide,"-0,12"
same,Log Infectivity,[4]; [11],-0.1152
same,Log10 Infection Rel EF-C,[4]; [13],-0.12
same,Log10 Infection Rel EF-C,[4]; [14],-0.1152
same,Log10 Infection Rel EF-C,[4]; [15],-0.1152
same,Log10 of Rel to EFC (Feb2021),[4]; [16],-0.12
same,Abs. Inf.,[4],20303.33333
same,Log10 Inf. rel. to EF-C,[4]; [17],-0.1152
KIKQIIN,b -sheet / %,[1],37.69%
same,Log10 Count Rate,[2]; [5],1.806
same,Count Rate / kcps,[2],64 kcps
same,Log10 Count Rate,[2]; [6],1.806
same,Log10 Count Rate,[2]; [7],1.806
same,Log10 Count Rate,[2]; [8],1.806
same,Zeta-Pot.,[3]; zeta potential of peptide assemblies,-11.7
same,Zeta-Potential / mV,[3]; [9],-5.929 mV
same,Zeta-Potential / mV,[3]; [10],-11.7 mV
same,Rel-EFC,[4]; 1.3 µM peptide,"0,04"
same,Log10 Infection Rel EFC,[4]; 1.3 µM peptide,"-1,4"
same,Log Infectivity,[4]; [11],-1.4
same,Log10 Infection Rel EF-C,[4]; [13],-1.4
same,Log10 Infection Rel EF-C,[4]; [14],-1.4
same,Log10 Infection Rel EF-C,[4]; [15],-1.4
same,Log10 Inf. rel. to EF-C,[4]; [17],-1.4

# Reference: publication PMC10447463, “Data-mining unveils structure–property–activity correlation of viral infectivity enhancing self-assembling peptides” (Nature Communications, 2023)
